Assay results published in patent US20110162981A1, “METHODS AND COMPOSITIONS FOR PREVENTING, REDUCTING OR TREATING DAMAGE CAUSED BY ISCHEMIA AND SCHEMIA-LIKE CONDITIONS” (priority 2008, published 2011).

System: ischemia-induced brain lesion (middle cerebral artery occlusion)
Test: MCAO/reperfusion stroke model, TTC staining lesion volume
Format: in vivo, Sprague Dawley rats
Conditions: ovariectomized female SD rats, 1 hr MCAO

## C[C@]12CC[C@@H]3c4ccc(O)cc4CC[C@H]3[C@@H]1CC[C@@H]2O [17 β-Estradiol, 17-beta estradiol]
24 hours after onset of reperfusion, TTC staining, mean
  Ischemic Lesion Volume (means, mm^3): 147.4 mm^3
24 hours reperfusion, vs control diet rats
  reduction of ischemia-induced brain lesion compared with control rats: 48%
